We go through 33 molecules from patent US12559505B2, “IDH mutant inhibitor and use thereof” (WIGEN BIOMEDICINE TECHNOLOGY (SHANGHAI) CO., LTD., priority 2020, dated 2026).

The term inhibition denotes the percentage by which the read-out fell short of the control.

This assay concerns the target T1, IDH R132C (Homo sapiens, UniProt O75874, R132C).
T1 construct: expressed in transfected cells; host or cells: U87 cells
Briefly: Detection of 2-HG in supernatant of U87-IDH R132C cells. In kind it is cell-based. Conditions: 72 h, LC-MS-MS, vs control; for inhibition at 0.001 µM: read-out: Inhibition rate of compounds on 2-HG in the supernatant of U87-IDH R132C cells, 1 nM; for inhibition at 0.01 µM: read-out: Inhibition rate of compounds on 2-HG in the supernatant of U87-IDH R132C cells, 10 nM; for inhibition at 0.1 µM: read-out: Inhibition rate of compounds on 2-HG in the supernatant of U87-IDH R132C cells, 100 nM. How it is done:
U87 cells overexpressing the IDH R132C mutation were seeded in a 48-well plate at 50,000 cells/well. After the cells were incubated overnight for adhesion, the supernatant was removed. The cell culture media containing serially diluted compounds were added, and the cells were incubated for 72 h. After 72 h, the cultures were collected and diluted 10-fold with water, and acetonitrile was added to extract the metabolites. The 2-HG content in the cultures was analyzed by LC-MS-MS, and the percentage inhibition of compounds on 2-HG in the supernatant was calculated as compared with the control.

T1 sequence (O75874 whole entry R132C): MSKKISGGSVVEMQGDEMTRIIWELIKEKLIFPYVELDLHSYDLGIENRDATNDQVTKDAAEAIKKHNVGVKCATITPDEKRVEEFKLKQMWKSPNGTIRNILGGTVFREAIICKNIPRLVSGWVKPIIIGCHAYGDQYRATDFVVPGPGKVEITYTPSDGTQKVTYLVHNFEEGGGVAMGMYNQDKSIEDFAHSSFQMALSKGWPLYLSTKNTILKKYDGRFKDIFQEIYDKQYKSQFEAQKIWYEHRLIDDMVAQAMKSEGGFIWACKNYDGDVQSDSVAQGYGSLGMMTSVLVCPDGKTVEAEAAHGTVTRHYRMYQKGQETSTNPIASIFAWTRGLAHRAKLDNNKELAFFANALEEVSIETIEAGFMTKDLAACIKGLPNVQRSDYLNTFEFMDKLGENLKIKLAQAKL

For the molecule `C=CC(=O)N(C)C1CN(C(CC2CC2)c2ccc(C3(Nc4ncc5c(n4)N(CC)C(=O)OC5)CC3)cc2)C1` (stereo not drawn) [Compound 30], for the setting “1 nM compound”, the inhibition at 0.001 µM was in the range of 30 to 60%. Also, the inhibition at 0.01 µM (10 nM compound) lay in the range of 60 to 90%. In addition, the inhibition at 0.1 µM (100 nM compound) was over 90%.
Taken in the same sequence, the figures for `C=CC(=O)N1CC2(C1)CN(C(CC13CC(C1)C3)c1ccc([C@H](C)Nc3ncc4c(n3)N(CC)C(=O)OC4)cc1)C2` (stereo partly drawn) [Compound 66] were 60 to 90%, over 90% and over 90%.
Taken in the same sequence, the figures for `C=CC(=O)N1CCN(C(CC(C)C)c2ccc([C@H](C)Nc3ncc4cnc(=O)n(CC)c4n3)cc2)CC1` (stereo partly drawn) [Compound 116] were 60 to 90%, over 90% and over 90%.
Regarding `C=CC(=O)N1CCN([C@@H](CC2CC2)c2ccc([C@H](C)Nc3ncc4cnc(=O)n(CC)c4n3)cc2)CC1` [Compound 114-1], under “1 nM compound”, the inhibition at 0.001 µM is 60 to 90%. For the same molecule, the inhibition at 0.01 µM (10 nM compound) is over 90%. In addition, the inhibition at 0.1 µM (100 nM compound) was over 90%.
For the molecule `C=CC(=O)NC1CCN(C(CC2CC2)c2ccc([C@H](C)Nc3ncc4c(n3)N(C(C)C)C(=O)OC4)cc2)CC1` (stereo partly drawn) [Compound 22], the inhibition at 0.001 µM (1 nM compound) is under 30%. In addition, the inhibition at 0.01 µM (10 nM compound) lay in the range of 60 to 90%. For the same molecule, the inhibition at 0.1 µM (100 nM compound) was over 90%.
Taken in the same sequence, the figures for `C=CC(=O)N1CCN([C@@H](CC23CC(C2)C3)c2ccc([C@H](C)Nc3ncc4c(n3)N(CC)C(=O)NC4)cc2)CC1` [Compound 70-1] were 60 to 90%, over 90% and over 90%.
Consider `C=CC(=O)N1CC2(C1)CN(C(CC)c1ccc([C@H](C)Nc3ncc4c(n3)N(CC)C(=O)OC4)cc1)C2` (stereo partly drawn) [Compound 36], for which, where the note is “1 nM compound”, the inhibition at 0.001 µM lay in the range of 60 to 90%. The inhibition at 0.01 µM (10 nM compound) is over 90%. For the same molecule, the inhibition at 0.1 µM (100 nM compound) was over 90%.
With `C=CC(=O)N1CCN(C(CC)c2ccc([C@H](C)Nc3ncc4cnc(=O)n(CC)c4n3)cc2)CC1` (stereo partly drawn) [Compound 115], where the note is “1 nM compound”, the inhibition at 0.001 µM lay in the range of 30 to 60%. For the same molecule, the inhibition at 0.01 µM (10 nM compound) was over 90%. Further, the inhibition at 0.1 µM (100 nM compound) was over 90%.
For `C=CC(=O)N1CCN(C(CCC)c2ccc([C@H](C)Nc3ncc4c(n3)N(CC)C(=O)OC4)cc2)CC1` (stereo partly drawn) [Compound 141], the inhibition at 0.001 µM (1 nM compound) was in the range of 30 to 60%. Moreover, the inhibition at 0.01 µM (10 nM compound) was in the range of 60 to 90%. The inhibition at 0.1 µM (100 nM compound) was over 90%.
For `C=CC(=O)N1CC2(C1)CN([C@H](CC13CC(C1)C3)c1ccc([C@H](C)Nc3ncc4c(n3)N(CC)C(=O)OC4)cc1)C2` [Compound 66-2], the inhibition at 0.001 µM (1 nM compound) was 30 to 60%. Moreover, the inhibition at 0.01 µM (10 nM compound) fell in the range of 60 to 90%. Moreover, the inhibition at 0.1 µM (100 nM compound) is over 90%.
Taken in the same sequence, the figures for `C=CC(=O)N1CCN([C@H](CC2CC2)c2ccc([C@H](C)Nc3ncc4cnc(=O)n(CC)c4n3)cc2)CC1` [Compound 114-2] were 30 to 60%, over 90% and over 90%.
Turning to `C=CC(=O)N1CCN([C@H](CC2CC2)c2ccc([C@H](C)Nc3ncc4c(n3)N(C(C)C)C(=O)OC4)cc2)CC1` [Compound 147-2], for the setting “1 nM compound”, the inhibition at 0.001 µM is 30 to 60%. For the setting “10 nM compound”, the inhibition at 0.01 µM fell in the range of 60 to 90%. Also, where the note is “100 nM compound”, the inhibition at 0.1 µM was over 90%.
On the same counts, the results for `C=CC(=O)N1CCN(C(CC2CC2)c2ccc(C3(Nc4ncc5cnc(=O)n(CC)c5n4)CC3)cc2)CC1` (stereo not drawn) [Compound 109] are 60 to 90%, 60 to 90% and over 90%.
Taken in the same sequence, the figures for `C=CC(=O)N(C)C1CCN(C(CC2CC2)c2ccc([C@H](C)Nc3ncc4c(n3)N(CC)C(=O)OC4)cc2)CC1` (stereo partly drawn) [Compound 16] were 30 to 60%, 60 to 90% and over 90%.
Taken in the same sequence, the figures for `C=CC(=O)N1CCN([C@H](CC23CC(C2)C3)c2ccc([C@H](C)Nc3ncc4c(n3)N(CC)C(=O)NC4)cc2)CC1` [Compound 70-2] were 60 to 90%, 60 to 90% and over 90%.
In the case of `C=CC(=O)N1CCN([C@@H](CC)c2ccc([C@H](C)Nc3ncc4cnc(=O)n(CC)c4n3)cc2)CC1` [Compound 116-1], the inhibition at 0.001 µM (1 nM compound) is 60 to 90%. Under “10 nM compound”, the inhibition at 0.01 µM is over 90%. In addition, under “100 nM compound”, the inhibition at 0.1 µM was over 90%.
As to `C=CC(=O)N1CCN(C(CC2(C)CC2)c2ccc([C@H](C)Nc3ncc4c(n3)N(CC)C(=O)OC4)cc2)CC1` (stereo partly drawn) [Compound 156], under “1 nM compound”, the inhibition at 0.001 µM is 60 to 90%. Also, under “10 nM compound”, the inhibition at 0.01 µM is over 90%. In addition, the inhibition at 0.1 µM (100 nM compound) was over 90%.
As to `C=CC(=O)N1CCN([C@@H](CC2CC2)c2ccc([C@H](C)Nc3ncc4c(n3)N(C(C)C)C(=O)OC4)cc2)CC1` [Compound 147-1], the inhibition at 0.001 µM (1 nM compound) was 60 to 90%. Besides, the inhibition at 0.01 µM (10 nM compound) is over 90%. Further, the inhibition at 0.1 µM (100 nM compound) was over 90%.
As to `C=CC(=O)N1CCN(C(CC2(C)CC2)c2ccc([C@H](C)Nc3ncc4c(n3)N(CC)C(=O)NC4)cc2)CC1` (stereo partly drawn) [Compound 69], the inhibition at 0.001 µM (1 nM compound) lay in the range of 30 to 60%. Further, the inhibition at 0.01 µM (10 nM compound) was over 90%. Moreover, the inhibition at 0.1 µM (100 nM compound) was over 90%.
With `C=CC(=O)N1CC2(C1)CN(C(CC1CCC1)c1ccc([C@H](C)Nc3ncc4c(n3)N(CC)C(=O)OC4)cc1)C2` (stereo partly drawn) [Compound 63], where the note is “1 nM compound”, the inhibition at 0.001 µM is 30 to 60%. In addition, for the setting “10 nM compound”, the inhibition at 0.01 µM is over 90%. In addition, the inhibition at 0.1 µM (100 nM compound) is over 90%.
In the case of `C=CC(=O)N1CCN(C(CC2CC2)c2ccc([C@H](C)Nc3ncc4c(n3)N(C(C)C)C(=O)OC4)cc2)CC1` (stereo partly drawn) [Compound 147], the inhibition at 0.001 µM (1 nM compound) lay within 60 to 90%. In addition, the inhibition at 0.01 µM (10 nM compound) is over 90%. Besides, the inhibition at 0.1 µM (100 nM compound) is over 90%.
Consider `C=CC(=O)N1CCN(C(CC(C)(C)C)c2ccc([C@H](C)Nc3ncc4cnc(=O)n(C(C)C)c4n3)cc2)CC1` (stereo partly drawn) [Compound 124], for which, where the note is “1 nM compound”, the inhibition at 0.001 µM was in the range of 30 to 60%. For the same molecule, where the note is “10 nM compound”, the inhibition at 0.01 µM lay in the range of 60 to 90%. Also, the inhibition at 0.1 µM (100 nM compound) was over 90%.
As for `C=CC(=O)N1CC2(CC([C@@H](CC3CCC3)c3ccc([C@H](C)Nc4ncc5c(n4)N(CC)C(=O)OC5)cc3)C2)C1` [Compound 1-1], where the note is “1 nM compound”, the “Inhibition rate of compounds on 2-HG in the supernatant of U87-IDH R132C cells, 1 nM” value is “C (C represents an inhibition rate greater than 30% but less than or equal to 60%)”. For the same molecule, the “Inhibition rate of compounds on 2-HG in the supernatant of U87-IDH R132C cells, 10 nM” value (10 nM compound) is reported as “A (A represents an inhibition rate greater than 90%)”. In addition, under “100 nM compound”, the “Inhibition rate of compounds on 2-HG in the supernatant of U87-IDH R132C cells, 100 nM” value is reported as “A (A represents an inhibition rate greater than 90%)”.
On to `C=CC(=O)N1CC2(C1)CN(C(CC1(C)CC1)c1ccc([C@H](C)Nc3ncc4c(n3)N(CC)C(=O)NC4)cc1)C2` (stereo partly drawn) [Compound 71], for which, where the note is “1 nM compound”, the inhibition at 0.001 µM is 30 to 60%. In addition, the inhibition at 0.01 µM (10 nM compound) is over 90%. In addition, the inhibition at 0.1 µM (100 nM compound) is over 90%.
In the case of `N#Cc1ccnc(N2C(=O)CC[C@H]2C(=O)N(c2cncc(F)c2)[C@H](C(=O)NC2CC(F)(F)C2)c2ccccc2Cl)c1` [Ivosidenib, ivosidenib, reference compound], where the note is “1 nM compound”, the inhibition at 0.001 µM was under 30%. The inhibition at 0.01 µM (10 nM compound) is under 30%. Further, the inhibition at 0.1 µM (100 nM compound) is 60 to 90%.
For the molecule `C=CC(=O)NC1CN(C(CC2CC2)c2ccc(C3(Nc4ncc5c(n4)N(CC)C(=O)OC5)CC3)cc2)C1` (stereo not drawn) [Compound 28], the inhibition at 0.001 µM (1 nM compound) was under 30%. In addition, the inhibition at 0.01 µM (10 nM compound) lay in the range of 60 to 90%. Also, the inhibition at 0.1 µM (100 nM compound) was over 90%.
For `C=CC(=O)N1CC2(C1)CN(C(CC1CC1)c1ccc(C3(Nc4ncc5c(n4)N(CC)C(=O)OC5)CC3)cc1)C2` (stereo not drawn) [Compound 26], the inhibition at 0.001 µM (1 nM compound) lay within 30 to 60%. The inhibition at 0.01 µM (10 nM compound) was in the range of 60 to 90%. Moreover, the inhibition at 0.1 µM (100 nM compound) was over 90%.
With `C=CC(=O)N1CC2(C1)CN(C(CC1CC1)c1ccc(C3(Nc4ncc5c(n4)N(C(C)C)C(=O)OC5)CC3)cc1)C2` (stereo not drawn) [Compound 31], the inhibition at 0.001 µM (1 nM compound) is under 30%. For the same molecule, under “10 nM compound”, the inhibition at 0.01 µM was 60 to 90%. Further, the inhibition at 0.1 µM (100 nM compound) was over 90%.
Taken in the same sequence, the figures for `C=CC(=O)N1CCN(C(CC(C)C)c2ccc([C@H](C)Nc3ncc4cnc(=O)n(C(C)C)c4n3)cc2)CC1` (stereo partly drawn) [Compound 113] were 60 to 90%, over 90% and over 90%.
Taken in the same sequence, the figures for `C=CC(=O)N1CCN(C(CC)c2ccc([C@H](C)Nc3ncc4c(n3)N(C(C)C)C(=O)NC4)cc2)CC1` (stereo partly drawn) [Compound 80] were 30 to 60%, 60 to 90% and over 90%.
Turning to `C=CC(=O)N1CC2(C1)CN(C(CC(C)C)c1ccc([C@H](C)Nc3ncc4c(n3)N(C(C)C)C(=O)OC4)cc1)C2` (stereo partly drawn) [Compound 47], the inhibition at 0.001 µM (1 nM compound) lay in the range of 60 to 90%. Besides, under “10 nM compound”, the inhibition at 0.01 µM is over 90%. In addition, the inhibition at 0.1 µM (100 nM compound) was over 90%.
Regarding `C=CC(=O)NC1CN(C(CC2CC2)c2ccc([C@H](C)Nc3ncc4c(n3)N(CC)C(=O)OC4)cc2)C1` (stereo partly drawn) [Compound 14], where the note is “1 nM compound”, the inhibition at 0.001 µM was in the range of 30 to 60%. Further, the inhibition at 0.01 µM (10 nM compound) was over 90%. Besides, the inhibition at 0.1 µM (100 nM compound) is over 90%.
Take `C=CC(=O)N1CC2(C1)CN(C(CC(C)C)c1ccc([C@H](C)Nc3ncc4c(n3)N(CC)C(=O)OC4)cc1)C2` (stereo partly drawn) [Compound 41]: under “1 nM compound”, the inhibition at 0.001 µM fell in the range of 30 to 60%. Also, the inhibition at 0.01 µM (10 nM compound) is over 90%. Further, for the setting “100 nM compound”, the inhibition at 0.1 µM is over 90%.
